This is an account of results in patent US20240090505A1, “MULTI-SOLVENT PESTICIDAL COMPOSITIONS INCLUDING SULFOXIMINE” (CLARKE MOSQUITO CONTROL PRODUCTS, INC., priority 2020, published 2024).

For the assay, the system named is Culex sp. mosquitos. As to the kind of experiment: Laboratory test of samples with and without surfactant (Pluronic L92), knockdown and mortality. The note with it: propylene carbonate:tributyl O-acetylcitrate 1:1. The format is in vivo. The method, then: Various amounts of different surfactants were evaluated to determine possible impacts on efficacy. In one set of trials, different amounts of sulfoxaflor were tested with and without a surfactant (Pluronic L92 from BASF).

Consider `CC(c1ccc(C(F)(F)F)nc1)S(C)(=O)=NC#N` (stereo not drawn) [Sulfoxaflor, sulfoxaflor], for which the 1-hour knockdown reads like this: (0.5 wt% sulfoxaflor, 20 wt% surfactant (Pluronic L92)) 2%; (0.5 wt% sulfoxaflor, no surfactant) 0%; (1 wt% sulfoxaflor, no surfactant) 18%.
